Marks after values point to notes of the source that are not given here.
Legend:
S. enterica biofilm = test: Antibiofilm activity (crystal violet); assay type: cell-based, Salmonella enterica; conditions: 24 h incubation, HdKTLR 262, HdKNL 262, HdPPP 130, HdVLPN 204, HdLPN 227 µg/mL, OD 595 nm
Protocol: (§1) The antibiofilm activity was determined according to the following method, with some modifications. Taking the microplate from 24 h inhibition growth curves, the contents of the plate were discarded, and each well was carefully washed three times with distilled water to remove non-adherent cells. The adhered cells were fixed with 150 µL of methanol for 10 min. Then, the methanol was discarded, the plates were left to dry, and then, the fixed biofilm was stained with […] of crystal violet (CV) for 10 min. Excess stain was rinsed out by placing the plate under slow-running tap water. Once the plates were air-dried, the dye attached to the adherent cells was resolubilized by adding 150 µL of 33% (v/v) glacial acetic acid and agitated for 15 min. The optical density of the solution obtained was measured at 595 nm using a multidetection plate reader (Synergy H1, Winooski, VT, USA). All tests were carried out in duplicate, with a positive control using an inoculated culture in MH broth and a negative control using MH broth only. The results are presented as the percentage of biofilm formation, calculated according to the following formula, where the OD of the sample is the measured OD of the inoculated medium mixed with the peptides, and the OD of the positive control is the OD measured for the positive control.% Biofilm formation = (ODsample/ODpositive control) × 100(1)

E. coli biofilm = test: Antibiofilm activity (crystal violet); assay type: cell-based, Escherichia coli; conditions: 24 h incubation, HdKTLR 262, HdKNL 262, HdPPP 130, HdVLPN 204, HdLPN 227 µg/mL, OD 595 nm
Protocol: as §1

[1] = cited from earlier work
Description: Table 4 Summary of peptide solubility and concentration values. | column: Solubility || A high-performance size exclusion chromatography (HPSEC) analysis was employed to validate the molecular weight of the selected peptides, HdKTLR, HdKNL, HdVLPN, and HdLPN, synthesized by GenScript Biotech (Rijswijk, The Netherlands), following the preparation instructions provided in the technical datasheet. […] At higher concentrations, viscosity may increase due to molecular interactions between DMSO, buffer ions, and water. In iso ...

[2] = ORAC assay of peptide mixed with mucus (synergy); set-up: Increase in ORAC antioxidant activity of peptide combined with mucus versus sum of the individual systems: concentration or dose not given beside the values; conditions: for ORAC of the peptide alone in the synergy experiment: one part peptide to four parts phosphate buffer, Figure 3 captive, Figure 4 wild series; for Increase in ORAC antioxidant activity of peptide combined with mucus versus sum of the individual systems: one part peptide to four parts mucus
Protocol: The ORAC assay followed the protocol outlined by Coscueta et al.. […] Fluorescence was monitored for 80 min at 1 min intervals. Each sample, standard, blank, or control, analysis was duplicated. The final ORAC values were expressed as µmol TE/µmol of peptide for the peptides and µmol TE /mg of protein for the digestion retentate and permeate contents. The synergistic interaction between the mucus and peptides was performed by mixing the peptides with mucus at a ratio of one part peptide to four parts mucus. In addition, control analyses were performed by mixing one part of the phosphate buffer with four parts of the mucus and another with one part of the peptide to four parts of the phosphate buffer. The mixtures were then tested in the ORAC assay. The final ORAC values were expressed as µM TE.

Lactobacillus species = test: Probiotic growth curves; assay type: cell-based; conditions: L. acidophilus Ki, La5, L. plantarum 299V, L. casei, L. rhamnosus RII; HdKTLR 262, HdKNL 262, HdVLPN 204, HdLPN 227 µg/mL; MRS broth, 24 h, 37 °C, OD 650 nm
Protocol: (§2) The effect of the peptides on probiotics was evaluated using the following probiotic Lactobacillus and Bifidobacterium species: L. acidophilus Ki (LAS), L. acidophilus La5, L. casei L26, L. plantarum 299V, L. rhamnosus RII, B. longum BG3 B. animalis spp. lactis BB12, B. animalis BLC, and B. animalis Bo. All the assays were performed using MRS broth supplemented with 0.5 g/L of L-cysteine. The peptides were combined with a 1/10 ratio of inoculum, containing 2% (v/v) of the probiotic and cultured for […] in MRS broth. For the positive control, deionized water was used instead of the peptides, with a 2% inoculum, while deionized water with MRS served as the negative control. Peptide wells with Bifidobacterium were sealed with paraffin to assure anaerobiosis conditions. The bacterial growth was monitored at 650 nm for 24 h at 37 °C in a microplate reader (Multiskan GO, Thermo Scientific, Finland), and the optical density (OD) was measured hourly. Growth curves were created by transforming the absorbance values in natural logarithms ln (Abs).

Bifidobacterium species = test: Probiotic growth curves; assay type: cell-based; conditions: B. longum BG3, B. animalis Bo, BB-12, BLC, B. breve; HdKTLR 262, HdKNL 262, HdVLPN 204, HdLPN 227 µg/mL; MRS broth, 24 h, 37 °C, OD 650 nm
Protocol: as §2

[3] = test system: Pseudomonas aeruginosa ATCC 27853; test: Growth inhibition curves; assay type: cell-based; conditions: HdKTLR 262, HdKNL 262, HdPPP 130 (5% DMSO), HdVLPN 204, HdLPN 227 µg/mL; MH broth, OD 600 nm hourly, 24 h, 37 °C
Protocol: (§3) The antimicrobial activity of the mucus samples was evaluated following the method by against the following pathogenic bacteria: Gram-negative Escherichia coli ATCC 25922, Salmonella enterica serovar Enteritidis ATCC 13076, and Pseudomonas aeruginosa ATCC 27853 and Gram-positive Staphylococcus aureus ATCC 6538. The mucus samples were combined with a 1/10 ratio of inoculum containing 1% (v/v) of bacteria cultured for 24 h in MH broth. For the positive control, deionized water was used instead of mucus samples with a 1% inoculum, while deionized water with MH served as the negative control. A control using chloramphenicol was made at a concentration of 16 µg/mL for E. coli, S. enterica, and P. aeruginosa and 100 µg/mL for S. aureus. The mixture was then transferred to a 96-well microplate (Sarstedt, Germany), and the optical density (OD) at 600 nm was measured every hour for a 24 h period at 37 °C using a microplate reader (Multiskan GO, Thermo Scientific, Finland). An increase in OD indicated bacterial growth.

[4] = test system: Salmonella enterica serovar Enteritidis ATCC 13076; test: Growth inhibition curves; assay type: cell-based; conditions: HdKTLR 262, HdKNL 262, HdPPP 130 (5% DMSO), HdVLPN 204, HdLPN 227 µg/mL; MH broth, OD 600 nm hourly, 24 h, 37 °C
Protocol: as §3

[5] = test system: Staphylococcus aureus ATCC 6538; test: Growth inhibition curves; assay type: cell-based; conditions: HdKTLR 262, HdKNL 262, HdPPP 130 (5% DMSO), HdVLPN 204, HdLPN 227 µg/mL; MH broth, OD 600 nm hourly, 24 h, 37 °C
Protocol: as §3

[6] = test system: Escherichia coli ATCC 25922; test: Growth inhibition curves; assay type: cell-based; conditions: HdKTLR 262, HdKNL 262, HdPPP 130 (5% DMSO), HdVLPN 204, HdLPN 227 µg/mL; MH broth, OD 600 nm hourly, 24 h, 37 °C
Protocol: as §3

ORAC assay = conditions: fluorescence monitored 80 min, means (n ≥ 3) ± SD, nd: not detected
Protocol: The ORAC assay followed the protocol outlined by Coscueta et al.. […] Fluorescence was monitored for 80 min at 1 min intervals. Each sample, standard, blank, or control, analysis was duplicated. The final ORAC values were expressed as µmol TE/µmol of peptide for the peptides and µmol TE /mg of protein for the digestion retentate and permeate contents.

Row | Sequence | Biofilm formation versus control (S. enterica biofilm) | Biofilm formation versus control (E. coli biofilm) | Solubility (solvent) [1] | ORAC of the peptide alone in the synergy experiment [2] | Effect on probiotic growth (Lactobacillus species) | Effect on probiotic growth (Bifidobacterium species) | Antimicrobial activity (growth inhibition curve) [3] | Antimicrobial activity (growth inhibition curve) [4] | Antimicrobial activity (growth inhibition curve) [5] | Antimicrobial activity (growth inhibition curve) [6] | Increase in ORAC antioxidant activity of peptide combined with mucus versus sum of the individual systems ([2]; captive mucus sample) [%] | Increase in ORAC antioxidant activity of peptide combined with mucus versus sum of the individual systems ([2]; wild mucus sample) [%] | ORAC (ORAC assay) [µmol TE/µmol Peptide] | ORAC (ORAC assay; SD)
1 | EDNSELGQETPTLR [HdKTLR] | no significant differences | no significant differences | H2O | no antioxidant activity was detected | did not inhibit the growth | did not inhibit the growth | did not demonstrate antimicrobial potential | did not demonstrate antimicrobial potential | did not demonstrate antimicrobial potential | did not demonstrate antimicrobial potential | – | – | – | –
2 | VYPFPGPLPN [HdVLPN] | no significant differences | no significant differences | H2O | – | did not inhibit the growth | did not inhibit the growth | did not demonstrate antimicrobial potential | did not demonstrate antimicrobial potential | did not demonstrate antimicrobial potential | did not demonstrate antimicrobial potential | 31 | 44 | 1.560 | 1.560 ± 0.110 ^c µmol TE/µmol Peptide
3 | PFPGPLPN [HdLPN] | no significant differences | no significant differences | H2O | – | did not inhibit the growth | did not inhibit the growth | did not demonstrate antimicrobial potential | did not demonstrate antimicrobial potential | did not demonstrate antimicrobial potential | did not demonstrate antimicrobial potential | 51 | 54 | 0.195 | 0.195 ± 0.030 ^b,c µmol TE/µmol Peptide
4 | DPPNPKNL [HdKNL] | no significant differences | no significant differences | H2O | no antioxidant activity was detected | did not inhibit the growth | did not inhibit the growth | did not demonstrate antimicrobial potential | did not demonstrate antimicrobial potential | did not demonstrate antimicrobial potential | did not demonstrate antimicrobial potential | 126 | – | – | 0.048 ± 0.002 ^a µmol TE/µmol Peptide
